The values below come from patent publication US4997835A, “Substituted 2-acylpyridine-α-(N)-hetarlyhydrazones and medicaments containing the same” (priority 1987, dated 1991).

≈ marks a conversion by molar mass, not a printed value. Like-named read-outs stand apart in the source and are kept apart here. Bounds are passed on as bounds.

For series [1] the following is noted: mouse, in vivo. The method, then: (§1) The acute toxicity after a single administration of PH 22, pyridine-2-aldehyde-thiosemicarbazone (Py-2-TSC), as well as Conteben (thiacetazone, 4-acetylaminobenzaldehyde-thiosemicarbazone) was determined according to H. J. Hapke, Toxikologie fur Veterinarmediziner, F. Enke Verlag, Stuttgart 1975. The test animals used were Wistar rats and NMRI white mice.

The test system of series [2] is M. leprae. Briefly: Propagation of M. leprae in mouse paws. The format is in vivo. The method, then:
The therapeutic action was determined as a reduction of the number of acid-resistant bacteria in the mouse paw according to C. C. Shepard, J. Experim. Met., 112, p. 445, 1960.
It is possible to detect the synergistic effect of the combinations, even under in vivo conditions.

For series [3], the system named is Sierra Leone D-6 (parasitic malaria strain). The experiment in a line: Growth of malaria strain Sierra Leone D-6. Particulars: for IC90: read-out: I90. The format is cell-based. From the text: (§2) Determination of the semimaximum inhibiting concentration (I50) of typical representatives of the inventive compounds for the growth of parasitic malaria strains:
(§3) The determination took place according to the standard process (cf. WHO determination process).
(§4) The process according to Example 35 was repeated with the difference that the semimaximum inhibiting concentration of combinations of the inventive compound PH 22 with (2), (3) inhibitors of dihydrofolic acid reductase, (4) inhibitors of folate synthase and dihydrofolic acid reductase and (5), (6) inhibitors of DNA-synthesis were determined.

Series [4] concerns Mycobacterium marinum SN 1254. The experiment in a line: Minimum inhibiting concentration, M. marinum SN1254. The format is cell-based. Particulars: M. marin. SN1254, read-out: Minimum inhibiting concentration.
Series [5] relates to Mycobacterium tuberculosis H 37 RV. The experiment in a line: Minimum inhibiting concentration, M. tuberculosis H37RV. Type of series: cell-based. Particulars: Mycobacterium tuberculosis; M. tub. H37RV. The method, then:
The minimum inhibiting concentration of the commercially available and inventive substances given in Table 2 was determined according to the known standard process ("Methods for sensitivity testing of bacterial infectious germs", DIN 58940, part 5).
The determination was carried out on the following bacterial cultures:
2. Mycobacterium tuberculosis H 37 RV, FIB 2-85 JS
For culturing the bacterial cultures use was made of nutrient substrates according to Gottsacker and Lowenstein Jensen and culture media according to Lockemann or Dubos-Davis (cf. "Detection processes for mycobacteria from test material, III, culture medium formulations for culturing tuberculosis bacteria", 1978, Publisher: Deutsches Zentralkomitee zur Bekampfung der Tuberculose, Poppenhusenstrasse 14c, 2000 Hamburg 60).
In each case 5×10^-3 to 5×10^-5 mg, based on the wet weight, of the mycobacterial strains were incubated in 2 ml of culture fluid (Lockemann +0.5 wt/vol. % bovine serum albumen fraction 5) at 31° C. with a graded concentration of the particular inhibitor (dilution series). The culture tubes were read off after 8 to 15 days, as a function of the bacterial strain.
The MIC is the inhibitor concentration in μMol/l at which no propagation of the sewn cells is observed.

The test system of series [6] is Mycobacterium smegmatis ATCC 607. The experiment in a line: Minimum inhibiting concentration, M. smegmatis ATCC 607. Particulars: Mycolicibacterium smegmatis, ATCC607; M. smegm. ATCC 607; read-out: Minimum inhibiting concentration. Type of series: cell-based.
The subject of series [7] is Mycobacterium lufu. The experiment in a line: Minimum inhibiting concentration, M. lufu L 209. Type of series: cell-based. The conditions noted are these: Mycobacterium lufu.
Series [8] relates to M. leprae. The experiment in a line: In vitro propagation of M. leprae, thymidine incorporation. The format is cell-based. The conditions noted are these: Mycobacterium leprae, read-out: % Reduction Thymidine incorporation. A general note: Dividing cells build labelled thymidine or BrdU into new DNA.
Method: The inhibiting action was determined as a reaction of the thymidine absorption and the ATP content in M. Leprae suspensions, in the manner described by A. M. Dhople, Med. Sci. Res., 15, p.
Series [9] deals with Indochina W-2 (parasitic malaria strain). Briefly: Growth of malaria strain Indochina W-2. Type of series: cell-based. Particulars: for IC90: read-out: I90.
Text: as §2, §3, §4

Series [10] relates to human mammary tumour cell line MDA-MB231. Briefly: Inhibition of thymidine incorporation into DNA. Type of series: cell-based. Particulars: MDA-MB-231, read-out: 50% Inhibition of thymidine incorporation. Here is the method: (§5) The semimaximum inhibition of cellnumber increase and thymidine incorporation into DNA was determined on the […], human mammary tumour cell line MDA-MB231 (cf. H. D. Soule et al, J. Nat. Cancer Inst., 51, p.1409, 1973) according to the method described by H. Seidenberger, G. Kranzfelder, S. Wappes, H. Schonenberger, W. Beck and M. Girth, Arch. Pharm. 314, 955, 1981 and M. Lippman, M. E. Monaco and G. Bolan, Cancer Res. 37, 1901, 1977.

Series [11] has as its system Mycobacterium avium Patient Strain (Birk). Briefly: Minimum inhibiting concentration, M. avium Patient Strain (Birk). Type of series: cell-based. Particulars: Mycobacterium avium; M. avium Patient str.; read-out: Minimum inhibiting concentration.
Series [12] in a line: in vivo. Particulars: sc. Here is the method:
as §1

Series [13] relates to human mammary tumour cell line MDA-MB231. The experiment in a line: Inhibition of cellnumber increase. The format is cell-based. The conditions noted are these: MDA-MB-231, read-out: 50% Inhibition of cellnumber increase, I50. Here is the method:
as §5

For series [14], the system named is Mycobacterium avium SN 304. The experiment in a line: Minimum inhibiting concentration, M. avium SN 304. The format is cell-based. Particulars: SN304, M. avium SN 304, read-out: Minimum inhibiting concentration.
For series [15] the following is noted: Mouse i.p.; Cancer Res. 25, 1454 (1965); cited from earlier work.
For series [16] the following is noted: K. C. Agrawal et al, Biochem. Pharmacol. 1974; cited from earlier work.
Setting [17] is: read-out: IC50 in the case of combinations.

With `Clc1cc(NN=Cc2ccccn2)ncn1` [PH 22-26, pyridine-2-aldehyde-6'-chloro-4'-pyrimidylhydrazone], in series [1], the toxic effects result is “No toxic effects were observed”. The “% Inhibition of propagation of M. leprae in mouse paws” value in series [2] (0.1% in feed, 4 months) came out at 40%; in [2] (0.1% in feed, 6.5 months), 69%; in [2] (0.1% in feed, 8.5 months) it was 77%; in [2] (0.1% in feed, 12 months), 74%; in series [2] (two months in feed, DDS 0.0001%, Rifampicin 0.001%, K-130 0.01%, Brodimoprim 0.01%, PH 22-26 0.05%), 0%. The “M. leprae/paw, treated mice” value in [2] (0.1% in feed, 4 months (control 0.468)) was 0.283 × 10^6; in series [2] (0.1% in feed, 8.5 months (control 2.978)) it was 0.684 × 10^6; in series [2] (0.1% in feed, 12 months (control 3.682)), 0.945 × 10^6. In addition, the figures for the IC50 in series [3] (read-out: I50) and in [9] (read-out: I50) were 2000 nM and 3500 nM, respectively. Further, the results for the IC90 in series [3] and in series [9] were 3000 nM and 6.2 µM, respectively. Moreover, the MIC in series [4] came out at 12.9 µM (≈ 3.01 µg/mL); in [5] it was 6.2 µM (≈ 1.45 µg/mL); in series [6] it was 25.7 µM (≈ 6.01 µg/mL); in [7], 1.3 µM (≈ 0.304 µg/mL). Besides, in series [8] (50 mg/ml), the inhibition of growth at 50000 µg/mL is 30%. Also, the inhibition of growth at 100000 µg/mL in [8] (100 mg/ml) is 48%.

With `C(=NNc1ccccn1)c1ccccn1` [PH 22, pyridine-2-aldehyde-2'-pyridylhydrazone], the IC50 was 118 nM in [10]; 300 nM in series [3] (read-out: I50); 0.0556 µg/mL in series [3] (setting [17]); 2000 nM in [9] (read-out: I50); 0.39 µg/mL in series [9] (setting [17]); 151 nM in series [13]. The MIC worked out at 29 µM (≈ 5.75 µg/mL) in series [11]; 77 µM (≈ 15.3 µg/mL) in series [4]; 97 µM (≈ 19.2 µg/mL) in series [5]; 20 µM (≈ 3.96 µg/mL) in series [6]; 32 µM (≈ 6.34 µg/mL) in series [7]; 30 µM (≈ 5.95 µg/mL) in [14]. The compound further gave an LD50 in series [12] (rat) of over 2000 mg/kg. Also, the IC90 in series [3] was found to be 1300 nM; in [9], 2.5 µM.

As to `NC(=S)NN=Cc1ccccn1` [Py-2-TSC, pyridine-2-aldehyde-thiosemicarbazone, reference compound], the LD50 was 30 mg/kg in series [12] (Rat, subc., read-out: LD50) and 40 mg/kg body weight in series [15]. Also, the MIC in series [7] was 40 µM (≈ 7.21 µg/mL).

As for `NC(=S)NN=Cc1ccc(O)cn1` [5-hydroxypyridine-2-(carbox)-aldehyde-thiosemicarbazone], in series [16], the gastrointestinal toxicity result is recorded as “serious gastrointestinal toxicity”.
